Where a name gives a salt, the structure may show the parent alone.
Each molecule was assayed against T1, CFTR channel in human colonic T84 cells (Homo sapiens, UniProt P13569) (assay: T84 assay (FLIPR membrane potential dye, forskolin/IBMX-stimulated CFTR)). Conditions: average of at least 2 runs unless annotated n = 1.
T1 construct: results in the phosphorylation and opening of CFTR anion channels; host or cells: human colonic T84 cells
Type: cell-based
In short: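 T84 cells (25,000/well, grown overnight) were washed in HBSS with 10 mM Hepes, then loaded with FLIPR Red membrane potential dye for 45 min with or without compound. CFTR was stimulated with 10 μM forskolin plus 100 μM IBMX after a 10 s baseline. Depolarization was tracked as a fluorescence increase, read every second for 150 s.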

T1 sequence (P13569 whole entry): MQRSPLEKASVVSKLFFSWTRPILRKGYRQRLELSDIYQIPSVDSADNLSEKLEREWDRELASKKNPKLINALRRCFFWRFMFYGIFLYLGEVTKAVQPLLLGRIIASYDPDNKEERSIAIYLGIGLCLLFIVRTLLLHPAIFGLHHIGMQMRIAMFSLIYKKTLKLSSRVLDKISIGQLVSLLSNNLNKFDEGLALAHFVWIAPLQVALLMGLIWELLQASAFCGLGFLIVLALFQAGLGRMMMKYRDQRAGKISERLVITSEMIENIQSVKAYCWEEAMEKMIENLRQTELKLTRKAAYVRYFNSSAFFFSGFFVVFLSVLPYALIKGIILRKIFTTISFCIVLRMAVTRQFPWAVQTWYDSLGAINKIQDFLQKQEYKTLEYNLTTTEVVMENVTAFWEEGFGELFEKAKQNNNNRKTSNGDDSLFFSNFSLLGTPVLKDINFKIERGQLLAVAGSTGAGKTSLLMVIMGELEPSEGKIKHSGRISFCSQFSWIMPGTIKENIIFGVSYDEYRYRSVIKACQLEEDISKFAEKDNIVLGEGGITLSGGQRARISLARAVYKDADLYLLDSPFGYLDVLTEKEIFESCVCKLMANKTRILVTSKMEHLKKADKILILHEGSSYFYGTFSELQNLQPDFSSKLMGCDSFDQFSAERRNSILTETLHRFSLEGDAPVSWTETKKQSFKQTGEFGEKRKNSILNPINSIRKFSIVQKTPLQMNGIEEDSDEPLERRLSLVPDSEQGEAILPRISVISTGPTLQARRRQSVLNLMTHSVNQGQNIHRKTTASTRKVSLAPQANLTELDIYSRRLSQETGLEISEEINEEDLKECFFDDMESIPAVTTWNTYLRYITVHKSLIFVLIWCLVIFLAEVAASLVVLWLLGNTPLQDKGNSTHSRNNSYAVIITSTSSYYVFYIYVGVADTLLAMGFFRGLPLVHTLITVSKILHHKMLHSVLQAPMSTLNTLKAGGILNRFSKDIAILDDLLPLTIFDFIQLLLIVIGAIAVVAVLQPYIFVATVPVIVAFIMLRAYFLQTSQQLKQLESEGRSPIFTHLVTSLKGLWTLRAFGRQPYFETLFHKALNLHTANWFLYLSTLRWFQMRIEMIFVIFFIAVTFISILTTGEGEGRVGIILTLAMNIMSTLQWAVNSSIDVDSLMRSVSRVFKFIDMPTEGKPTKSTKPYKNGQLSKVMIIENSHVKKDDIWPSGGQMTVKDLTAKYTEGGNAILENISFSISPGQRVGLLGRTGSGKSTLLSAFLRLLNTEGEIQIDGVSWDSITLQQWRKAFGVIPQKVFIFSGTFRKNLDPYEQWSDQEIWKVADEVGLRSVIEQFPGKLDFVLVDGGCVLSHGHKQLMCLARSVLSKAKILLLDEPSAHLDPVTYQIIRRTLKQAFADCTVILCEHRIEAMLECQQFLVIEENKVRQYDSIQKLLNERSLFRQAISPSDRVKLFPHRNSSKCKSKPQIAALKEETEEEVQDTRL

SMILES | IC50 [µM]
OCCN(Cc1ccccc1)Cc1ccc(COc2ncc(-c3cc(Cl)c(O)c(Cl)c3)nn2)cc1 [Compound 159, 4-(3-(4-((benzyl(2-hydroxyethyl)amino)methyl)benzyloxy)-1,2,4-triazin-6-yl)-2,6-dichlorophenol] | 3.37
CN(Cc1ccccc1)Cc1ccc(COc2ncc(-c3cc(Cl)c(O)c(Cl)c3)nn2)cc1 [Compound 163, 4-(3-(4-((benzyl(methyl)amino)methyl)benzyloxy)-1,2,4-triazin-6-yl)-2,6-dichlorophenol] | 2.66
O=C(c1cccc(C(F)(F)F)c1)N1CCN(Cc2cc(Cl)ccc2OCc2ncc(-c3cc(Br)c(O)c(Br)c3)nn2)CC1 [Compound 126, (4-(5-chloro-2-((6-(3,5-dibromo-4-hydroxyphenyl)-1,2,4-triazin-3-yl)methoxy)benzyl)piperazin-1-yl)(3-(trifluoromethyl)phenyl)methanone] | 5.44
Oc1c(Cl)cc(-c2cnc(OCc3ccc(CN4CCCc5ccccc54)cc3)nn2)cc1Cl [Compound 182] | 11.8
Oc1c(Cl)cc(-c2cnc(OCc3ccc(CN4CCN(c5ccc(F)cc5F)CC4)cc3)nn2)cc1Cl [Compound 151, 2,6-dichloro-4-(3-(4-((4-(2,4-difluorophenyl)piperazin-1-yl)methyl)benzyloxy)-1,2,4-triazin-6-yl)phenol] | 1.92
CN(Cc1ccc(COc2ncc(-c3cc(Cl)c(O)c(Cl)c3)nn2)cc1)C(CN1CCOCC1)c1ccccc1 (stereo not drawn) [Compound 196, 2,6-dichloro-4-(3-(4-((methyl(2-morpholino-1-phenylethyl)amino)methyl)benzyloxy)-1,2,4-triazin-6-yl)phenol] | 5.89
Oc1c(Br)cc(-c2cnc(OCc3ccc(F)cc3F)nn2)cc1Br [Compound 4, 2,6-dibromo-4-(3-(2,4-difluorobenzyloxy)-1,2,4-triazin-6-yl)phenol] | 0.54
OCCN(Cc1ccc(COc2ncc(-c3cc(Cl)c(O)c(Cl)c3)nn2)cc1)Cc1cccc(OCc2ccccc2Cl)c1 [Compound 223, 2,6-dichloro-4-(3-(4-(((3-(2-chlorobenzyloxy)benzyl)(2-hydroxyethyl)amino)methyl)benzyloxy)-1,2,4-triazin-6-yl)phenol] | 3.55
Cc1cncc(Oc2cccc(CN(C)Cc3ccc(COc4ncc(-c5cc(Cl)c(O)c(Cl)c5)nn4)cc3)c2)n1 [Compound 203, 2,6-dichloro-4-(3-(4-((methyl(3-(6-methylpyrazin-2-yloxy)benzyl)amino)methyl)benzyloxy)-1,2,4-triazin-6-yl)phenol] | 2.43
Oc1c(Cl)cc(-c2cnc(OCCc3ccc(F)cc3)nn2)cc1Cl [Compound 179, 2,6-dichloro-4-(3-(4-fluorophenethoxy)-1,2,4-triazin-6-yl)phenol] | 2.33
Oc1c(Cl)cc(-c2cnc(OCc3ccc(CNCc4ccc(C(F)(F)F)nc4)cc3)nn2)cc1Cl [Compound 169, 2,6-dichloro-4-(3-(4-(((6-(trifluoromethyl)pyridin-3-yl)methylamino)methyl)benzyl-oxy)-1,2,4-triazin-6-yl)phenol] | 7.77
CN(Cc1ccc(COc2ncc(-c3cc(Cl)c(O)c(Cl)c3)nn2)cc1)Cc1cccc(CN2CCOCC2)c1 [Compound 200, 2,6-dichloro-4-(3-(4-((methyl(3-(morpholinomethyl)benzyl)amino)methyl)benzyloxy)-1,2,4-triazin-6-yl)phenol] | 5.89
Cc1ccc(OCc2ncc(-c3cc(Br)c(O)c(Br)c3)nn2)c2c1CCC2 [Compound 45, 2,6-dibromo-4-(3-((7-methyl-2,3-dihydro-1H-inden-4-yloxy)methyl)-1,2,4-triazin-6-yl)phenol] | 14.1
CC(=O)N1CCN(Cc2ccc(COc3ncc(-c4cc(Cl)c(O)c(Cl)c4)nn3)cc2)CC1 [Compound 216, 1-(4-(4-((6-(3,5-dichloro-4-hydroxyphenyl)-1,2,4-triazin-3-yloxy)methyl)benzyl)piperazin-1-yl)ethanone] | 23.2
CC(C)(C)OC(=O)N1CCN(Cc2ccc(COc3ncc(-c4cc(Cl)c(O)c(Cl)c4)nn3)cc2)CC1 [Compound 145, tert-butyl 4-(4-((6-(3,5-dichloro-4-hydroxyphenyl)-1,2,4-triazin-3-yloxy)methyl)benzyl)piperazine1-carboxylate, ammonium salt] | 1.55
Oc1c(Cl)cc(-c2cnc(OCCNc3ccccc3)nn2)cc1Cl [Compound 125, 2,6-dichloro-4-(3-(2-(phenylamino)ethoxy)-1,2,4-triazin-6-yl)phenol] | 25.8
CC(C)(C)OC(=O)N1CCN(Cc2cc(Cl)ccc2OCc2ncc(-c3cc(Br)c(O)c(Br)c3)nn2)CC1 [Compound 92, tert-butyl 4-(5-chloro-2-((6-(3,5-dibromo-4-hydroxyphenyl)-1,2,4-triazin-3-yl)methoxy)benzyl)piperazine-1-carboxylate] | 4.56
Oc1c(Cl)cc(-c2cnc(OC(Cc3ccccc3)c3ccccc3)nn2)cc1Cl (stereo not drawn) [Compound 111, 2,6-dichloro-4-(3-(1,2-diphenylethoxy)-1,2,4-triazin-6-yl)phenol] | 1.89

SMILES | IC50 [µM]
Oc1c(Cl)cc(-c2cnc(OCc3ccc(CNCc4cccc(Cl)c4Cl)cc3)nn2)cc1Cl [Compound 141, 2,6-dichloro-4-(3-(4-((2,3 —dichlorobenzylamino)methyl)benzyloxy)-1,2,4-triazin-6-yl)phenol] | 3.81
Oc1c(Br)cc(-c2cnc(OCc3ccc(F)c(F)c3)nn2)cc1Br [Compound 3, 2,6-dibromo-4-(3-(3,4-difluorobenzyloxy)-1,2,4-triazin-6-yl)phenol] | 0.48
CN(Cc1ccc(COc2ncc(-c3cc(Cl)c(O)c(Cl)c3)nn2)cc1)Cc1ccc(-c2ccccn2)cc1 [Compound 197, 2,6-dichloro-4-(3-(4-((methyl(4-(pyridin-2-yl)benzyl)amino)methyl)benzyl-oxy)-1,2,4-triazin-6-yl)phenol] | 2.64
CN(Cc1ccc(COc2ncc(-c3cc(Cl)c(O)c(Cl)c3)nn2)cc1)Cc1ccc(Oc2ccccn2)cc1 [Compound 176, 2,6-dichloro-4-(3-(4-((methyl(4-(pyridin-2-yloxy)benzyl)amino)methyl)benzyloxy)-1,2,4-triazin-6-yl)phenol] | 3.92
Oc1c(Br)cc(-c2cnc(OC3CCc4ccccc4C3)nn2)cc1Br (stereo not drawn) [Compound 108, 2,6-dibromo-4-(3-(1,2,3,4-tetrahydronaphthalen-2-yloxy)-1,2,4-triazin-6-yl)phenol] | 1.18
CN(Cc1ccc(COc2ncc(-c3cc(Cl)c(O)c(Cl)c3)nn2)cc1)Cc1cccnc1 [Compound 222, 2,6-dichloro-4-(3-(4-((methyl(pyridin-3-ylmethyl)amino)methyl)benzyl-oxy)-1,2,4-triazin-6-yl)phenol] | 11.2
Oc1c(Cl)cc(-c2cnc(COc3cccc(Cl)c3Cl)nn2)cc1Cl [Compound 37, 2,6-dichloro-4-(3-((2,3-dichlorophenoxy)methyl)-1,2,4-triazin-6-yl)phenol] | 8.61
Oc1c(Br)cc(-c2cnc(OCc3ccccn3)nn2)cc1Br [Compound 104, 2,6-dibromo-4-(3-(pyridin-2-ylmethoxy)-1,2,4-triazin-6-yl)phenol] | 16
Oc1c(Br)cc(-c2cnc(OCc3cccc(Br)c3)nn2)cc1Br [Compound 25, 2,6-dibromo-4-(3-(3-bromobenzyloxy)-1,2,4-triazin-6-yl)phenol] | 19.8
Oc1c(Cl)cc(-c2cnc(OCc3ccc(CN4CCN(CCc5ccccc5)CC4)cc3)nn2)cc1Cl [Compound 152, 2,6-dichloro-4-(3-(4-((4-phenethylpiperazin-1-yl)methyl)benzyloxy)-1,2,4-triazin-6-yl)phenol] | 8.88
CN(Cc1ccc(COc2ncc(-c3cc(Cl)c(O)c(Cl)c3)nn2)cc1)Cc1cccc(-c2cccnc2)c1 [Compound 213, 2,6-dichloro-4-(3-(4-((methyl(3-(pyridin-3-yl)benzyl)amino)methyl)benzyl-oxy)-1,2,4-triazin-6-yl)phenol] | 4.31
Oc1c(Cl)cc(-c2cnc(OCc3ccc(CN4Cc5ccc(F)cc5C4)cc3)nn2)cc1Cl [Compound 178, 2,6-dichloro-4-(3-(4-((5-fluoroisoindolin-2-yl)methyl)benzyloxy)-1,2,4-triazin-6-yl)phenol] | 3.31
CNC(=O)C1Cc2ccccc2CN1Cc1ccc(COc2ncc(-c3cc(Cl)c(O)c(Cl)c3)nn2)cc1 (stereo not drawn) [Compound 185, 2-(4-((6-(3,5-dichloro-4-hydroxyphenyl)-1,2,4-triazin-3-yloxy)methyl)benzyl)-N-methyl-1,2,3,4-tetrahydroisoquinoline-3-carboxamide] | 4.64
CN(Cc1ccc(COc2ncc(-c3cc(Cl)c(O)c(Cl)c3)nn2)cc1)Cc1cccc(Oc2ccccn2)c1 [Compound 186, 2,6-dichloro-4-(3-(4-((methyl(3-(pyridin-2-yloxy)benzyl)amino)methyl)benzyloxy)-1,2,4-triazin-6-yl)phenol] | 6.97
CC(C)(C)C(=O)N1CCN(Cc2ccc(COc3ncc(-c4cc(Cl)c(O)c(Cl)c4)nn3)cc2)CC1 [Compound 188, 1-(4-(4-((6-(3,5-dichloro-4-hydroxyphenyl)-1,2,4-triazin-3-yloxy)methyl)benzyl)piperazin1-yl)-2,2-dimethylpropan-1-one] | 10.3
Oc1c(Cl)cc(-c2cnc(NCc3ccc(Cl)cc3)nn2)cc1Cl [Compound 135, 2,6-dichloro-4-(3-(4-chlorobenzylamino)-1,2,4-triazin-6-yl)phenol] | 6.14
CN(C)CCCOc1ccc(CN(C)Cc2ccc(COc3ncc(-c4cc(Cl)c(O)c(Cl)c4)nn3)cc2)cc1 [Compound 199, 2,6-dichloro-4-(3-(4-(((4-(3-(dimethylamino)propoxy)benzyl)(methyl)amino)methyl)benzyl-oxy)-1,2,4-triazin-6-yl)phenol] | 7.54
Oc1c(Cl)cc(-c2cnc(OCc3ccc(CNC(CN4CCCC4)c4ccccc4)cc3)nn2)cc1Cl (stereo not drawn) [Compound 194, 2,6-dichloro-4-(3-(4-((1-phenyl2-(pyrrolidin-1-yl)ethylamino)methyl)benzyloxy)-1,2,4-triazin-6-yl)phenol] | 18.9

Reference: patent publication US20090264433A1, “Compounds, Compositions and Methods Comprising Triazine Derivatives” (Institute for OneWorld Health, priority 2008, published 2009)
